The results in this text go back to publication PMC9424684, “Z1456467176 alleviates gouty arthritis by allosterically modulating P2X7R to inhibit NLRP3 inflammasome activation” (Frontiers in Pharmacology, 2022).

SMILES strings stand for the structures. Counter-ions that a name gives are not always drawn.

The target of this test is T1, hP2X7R (purinergic receptor P2X7, P2X7R) (Homo sapiens, UniProt Q99572).
T1 construct: gene P2RX7; homotrimer
T1 sequence (Q99572 1-595): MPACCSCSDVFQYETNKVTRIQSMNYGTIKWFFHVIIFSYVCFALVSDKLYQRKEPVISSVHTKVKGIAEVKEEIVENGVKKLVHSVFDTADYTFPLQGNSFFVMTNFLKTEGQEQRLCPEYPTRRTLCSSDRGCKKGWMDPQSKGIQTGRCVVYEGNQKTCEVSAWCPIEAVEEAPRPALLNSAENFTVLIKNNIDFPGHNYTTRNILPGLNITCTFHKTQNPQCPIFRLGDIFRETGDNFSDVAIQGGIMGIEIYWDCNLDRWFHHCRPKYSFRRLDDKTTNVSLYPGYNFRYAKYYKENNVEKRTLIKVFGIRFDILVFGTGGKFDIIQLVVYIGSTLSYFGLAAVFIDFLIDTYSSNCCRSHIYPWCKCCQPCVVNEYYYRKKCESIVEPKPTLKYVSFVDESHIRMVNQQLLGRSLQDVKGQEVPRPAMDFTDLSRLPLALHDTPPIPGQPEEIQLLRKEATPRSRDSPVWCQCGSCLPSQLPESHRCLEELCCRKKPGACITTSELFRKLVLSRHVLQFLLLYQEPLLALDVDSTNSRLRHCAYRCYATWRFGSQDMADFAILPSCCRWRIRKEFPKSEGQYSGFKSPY
Briefly: ethidium bromide uptake (pore formation), flow cytometry, HEK-293T cells. Particulars: read-out: EB uptake IC50. Type of test: cell-based.

In general, IC50 refers to the concentration needed to halve the response being measured. As to `CC(Cc1cccc(C(F)(F)F)c1)C(=O)Nc1cccc(S(=O)(=O)NCCN)c1` (stereo not shown) [Z1456467176, N-{3-[(2-aminoethyl)sulfamoyl]phenyl}-2-methyl-3-[3-(trifluoromethyl)phenyl] propanamide hydrochloride], the IC50 is 3.42 µM.
